Tests used:
Format in all cases: functional
[1] = species on record: Rattus norvegicus; assay: Analgesic activity in Rattus norvegicus Wistar (rat) assessed as tail flick latency time after 90 min by tail immersion test (reference value: 3.25 +/- 0.005 secs)
[2] = species on record: Rattus norvegicus; assay: Analgesic activity in Rattus norvegicus Wistar (rat) assessed as tail flick latency time after 30 min by tail immersion test (reference value: 3.23 +/- 0.005 secs)
[3] = species on record: Rattus norvegicus; assay: Analgesic activity in Rattus norvegicus Wistar (rat) assessed as tail flick latency time after 60 min by tail immersion test (reference value: 3.34 +/- 0.005 secs)
[4] = test system: Rattus norvegicus; assay: Anti-inflammatory activity in Rattus norvegicus Wistar (rat) assessed as inhibition of carrageenan-induced paw edema at 20 mg/kg administered 30 min prior to carrageenan challenge measured after 0.5 hr by plethysmographic analysis relative to untreated control
[5] = test system: Rattus norvegicus; assay: Anti-inflammatory activity in Rattus norvegicus Wistar (rat) assessed as inhibition of carrageenan-induced paw edema at 20 mg/kg administered 30 min prior to carrageenan challenge measured after 2 hr by plethysmographic analysis relative to untreated control
[6] = test system: Rattus norvegicus; assay: Anti-inflammatory activity in Rattus norvegicus Wistar (rat) assessed as inhibition of carrageenan-induced paw edema at 20 mg/kg administered 30 min prior to carrageenan challenge measured after 1 hr by plethysmographic analysis relative to untreated control
[7] = test system: Rattus norvegicus; assay: Anti-inflammatory activity in Rattus norvegicus Wistar (rat) assessed as inhibition of carrageenan-induced paw edema at 20 mg/kg administered 30 min prior to carrageenan challenge measured after 3 hr by plethysmographic analysis relative to untreated control

SMILES | Time [1] [s] | Time [2] [s] | Time [3] [s] | inhibition in vivo at 20 mg/kg [4] [%] | inhibition in vivo at 20 mg/kg [5] [%] | inhibition in vivo at 20 mg/kg [6] [%] | inhibition in vivo at 20 mg/kg [7] [%]
CCOC(=O)C1=C(C)NC(C)=C(C(=O)OCC)C1c1ccc(OCC(=O)NN2C(=O)c3ccccc3C2=O)cc1 | 7.21 | 5.03 | 6.16 |  |  |  | 
CCOC(=O)C1=C(C)NC(C)=C(C(=O)OCC)C1c1ccc(OCC(=O)n2nc(C)cc2C)cc1 | 6.78 | 4.76 | 5.93 | 13.7 |  |  | 
CCOC(=O)C1=C(C)NC(C)=C(C(=O)OCC)C1c1ccc(OCC(=O)NNC(=O)CCC(=O)O)cc1 | 6.87 | 4.96 | 6.07 |  |  |  | 
CCOC(=O)C1=C(C)NC(C)=C(C(=O)OCC)C1c1ccc(OCc2nnc(S)o2)cc1 | 6.97 | 4.97 | 6.07 | 42.4 | 61.7 |  | 
CCOC(=O)C1=C(C)NC(C)=C(C(=O)OCC)C1c1ccc(OCC(=O)NNC(=O)c2cccs2)cc1 | 7.02 |  | 6.23 | 44 | 62.2 |  | 
CCOC(=O)C1=C(C)NC(C)=C(C(=O)OCC)C1c1ccc(OCC(=O)NNC(=O)c2ccsc2Cl)cc1 | 6.46 | 4.85 | 5.74 | 12.9 |  |  | 
CCOC(=O)C1=C(C)NC(C)=C(C(=O)OCC)C1c1ccc(OCC(=O)NNC(=O)c2sccc2Cl)cc1 | 6.45 | 4.34 | 5.67 |  | 57.2 |  | 
CCOC(=O)C1=C(C)NC(C)=C(C(=O)OCC)C1c1ccc(OCC(=O)NNC(=O)c2ccccc2)cc1 | 6.37 | 4.62 | 5.87 | 9.1 | 44.5 |  | 
CCOC(=O)C1=C(C)NC(C)=C(C(=O)OCC)C1c1ccc(OCC(=O)Nc2ccc(C)cc2)cc1 |  |  |  | 43.9 | 62.2 |  | 
CCOC(=O)C1=C(C)NC(C)=C(C(=O)OCC)C1c1ccc(OCC(=O)Nc2nc3ccccc3s2)cc1 |  | 5.28 | 6.03 | 47.7 | 64.5 |  | 
CCOC(=O)C1=C(C)NC(C)=C(C(=O)OCC)C1c1ccc(OCC(=O)NCc2ccccc2)cc1 |  |  |  |  | 8.9 | 16.1 | 
CCOC(=O)C1=C(C)NC(C)=C(C(=O)OCC)C1c1ccc(OCC(=O)Nc2c(C)cccc2C)cc1 |  |  |  | 15.9 | 47.8 |  | 
O=C([O-])Cc1ccccc1Nc1c(Cl)cccc1Cl.[K+] [DICLOFENAC POTASSIUM] | 7.45 | 6.25 | 6.95 |  |  |  | 
O=C(O)Cc1ccccc1Nc1c(Cl)cccc1Cl [DICLOFENAC SODIUM] |  |  |  | 16.7 | 61.1 | 41 | 65.3

Reference: ChEMBL document CHEMBL3046902, “New dihydropyridine derivatives: anti-inflammatory, analgesic and docking studies” (2013)
